Test results published in patent US20250339569A1, “CARBONIC ANHYDRASE IX LIGANDS” (priority 2021, published 2025).
Where two headings read alike, the source gives them in different places. Starred links: 1 amine or outer side, 2 acyl side, 3 side chain; linkers in the order of their positions; H or OH if unused. Positions of bridges follow the written chain, without caps; N, C: chain ends. Non-standard residues stand in square brackets, D forms with d. Residues, ends and D or L forms follow the SMILES beside them. *: point of attachment. Phe(3-NHCO(CH2)3SO2NH2) = N[C@@H](Cc1cccc(NC(=O)CCCS(N)(=O)=O)c1)C(=O)O; X32 = CC(=O)N[C@H](CC(=O)O)C(=O)Nc1cccc(C[C@@H](N[*:1])C(=O)[*:2])c1; X24 = NS(=O)(=O)c1ccc(C(=O)Nc2cccc(C[C@H](N[*:1])C(=O)[*:2])c2)cc1; X10 = NS(=O)(=O)c1cc(C(=O)Nc2cccc(C[C@H](N[*:1])C(=O)[*:2])c2)cs1; DOTA = O=C(O)CN1CCN(CC(=O)O)CCN(CC(=O)*)CCN(CC(=O)O)CC1; X7 = O=C([C@H](Cc1cccc(N[*:3])c1)N[*:1])[*:2]; Phe(4-NH2) = Nc1ccc(C[C@H](N)C(=O)O)cc1; mXylylene = c1cc(C[*:1])cc(C[*:2])c1; X13 = O=C1NC2NC(=O)N(CC(=O)*)C2N1; X2 = O=C(CN1CCC(N[*:1])CC1)[*:2]; Suc = O=C(CCC(=O)[*:2])[*:1]; hSer = N[C@@H](CCO)C(=O)O; dNMeA = CN[C@H](C)C(=O)O; Dap = NC[C@H](N)C(=O)O

What was measured:
[1] = biological target: T1, human carbonic anhydrase IX (hCAIX-Fc) (Homo sapiens, UniProt Q16790); assay: Surface plasmon resonance assay with hCAIX-Fc; format: binding; details: 25° C.; for t1/2 category (activity): SPR dissociation half-life, hCAIX-Fc; for Kd: SPR, hCAIX-Fc captured, read-out: pKD category (activity) (converted)
T1 construct: purchased SinoBliological (Sino Biological) 10107-H02H
Protocol: Surface plasmon resonance (SPR) studies were performed using a Biacore™ T200 SPR system (GE Healthcare Life Sciences). Briefly, polarized light is directed towards a gold-labeled sensor surface, and minimum intensity reflected light is detected. The angle of reflected light changes as molecules bind and dissociate.
Fc-fusion protein of human carbonic anhydrase IX (hCAIX-Fc, SinoBliological, Cat #10107-H02H) was captured on a Fc-capture chip (Biacore™ CM5 sensor chip coated with ˜300 RU of an Fc-binding peptide). Recombinant carbonic anydrase was diluted in Running Buffer (PBST, 0.1% DMSO) to a final concentration 100 or 200 nM and than flushed over the Fc-capture chip to immobilized ˜1000 RUs.
Stock solutions of test compounds were prepared by dissolving each compound in DMSO. DMSO stock solution were diluted 1:1000 in Running Buffer without DMSO. Further sequencial dilutions were made with Running Buffer containing 0.1% DMSO. SPR binding analyses were performed in Single Cycle Kinetic (SCK) mode at 25° C. Flow cell coated with the Fc-binding peptide only served as reference flowcell. After each SCK run, carbonic andydrase IX was removed with 10 mM glycine buffer, pH 1.5.
In between every three SCK measurements, a blank run with Running Buffer instead of test compound was included to correct for baseline drifts (double blanking methods).
Table 11 describes the protocol steps for Fc-fusion target capturing and assessment of the binding kinetics.
For each test compound, SPR raw data in the form of resonance units (RU) were plotted as sensorgrams using the Biacore™ T200 control software. The signal from the blank sensorgram was subtracted from that of the test compound sensorgram (blank corrected). The blank corrected sensorgram was corrected for baseline drift by subtracting the sensorgram of a SCK run without the test compound (running buffer only). The association rate (kon), dissociation rate (koff), dissociation constant (KD), and t1/2 were calculated from Blank-normalized SPR data using the 1:1 Langmuir binding model from the Biacore™ T200 evaluation software. Raw data and fit results were imported as text files in IDBS. The pKD value (negative decadic logarithm of dissociation constant) was calculated in the IDBS excel template.

[2] = biological target: T2, CAIX-expressing human HT-29 colorectal cancer cells (Homo sapiens, UniProt Q16790); assay: FACS binding assay (IC50 determination, competition with tracer 3BP-2776 or 3BP-4149); details: 4° C., 1 hour, read-out: pIC50 category (activity) (converted)
T2 construct: CAIX-expressing human HT-29 colorectal cancer cells; host or cells: HT-29 human colorectal cancer cells
Outline: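 HT-29 cells in FACS buffer (PBS, 1% FCS) at 500.000 cells/ml were exposed to compounds competing with a labelled tracer, with biotinylated compounds detected by 1 μg/mL APC-streptavidin for 30 min on ice. APC/Cy5 median fluorescence was read by flow cytometry and IC50 derived by 4PL fit.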

[3] = FACS binding assay, HT-29 cells, competition with tracer 3BP-2776 (10 nM, biotin-labeled)
[4] = FACS binding assay, HT-29 cells, competition with tracer 3BP-4149 (3 nM, Cy5-labeled)
[5] = FACS competition on HT-29 cells, Tracer ID 3BP-2776 (10 nM, biotin-labeled)

Row | t1/2 category (activity) [1] | Kd [1] | IC50 [2, 3] | IC50 [2, 4] | IC50 [2, 5] | Compound
1 | A (t1/2>15.0 minutes) | < 10 nM | < 10 nM | – | – | CC(C)C[C@@H]1NC(=O)[C@H](Cc2c[nH]c3ccccc23)NC(=O)[C@H](CCO)NC(=O)[C@H]2CCCN2C(=O)[C@H](CCC(=O)O)NC(=O)[C@@H](NC(=O)[C@H](Cc2ccc(O)cc2)NC(=O)[C@@H](NC(=O)CN2CCC(NC(=O)CN3CCN(CC(=O)O)CCN(CC(=O)O)CCN(CC(=O)O)CC3)CC2)C(C)C)CSCc2cccc(c2)CSC[C@@H](C(N)=O)NC(=O)[C@H](CO)NC(=O)[C@H](Cc2c[nH]c3ccccc23)NC(=O)[C@H]([C@@H](C)O)NC1=O [3BP-4102] ({DOTA}-[X2]VYCE[dP][hSer]WLTWSC-NH2; linker 4-13 via mXylylene)
2 | D (t1/2≤2.0 minutes) | 10 to 79.4 nM | – | 10 to 79.4 nM | – | CC(C)C[C@@H]1NC(=O)[C@H](Cc2ccc(NC(=O)CCC(=O)O)cc2)NC(=O)[C@H](CC(=O)O)NC(=O)[C@H]2CCCN2C(=O)[C@H](CCC(=O)O)NC(=O)[C@@H](NC(=O)[C@H](Cc2ccc(O)cc2)NC(=O)[C@@H](NC(=O)CN2CCC(NC(=O)CN3CCN(CC(=O)O)CCN(CC(=O)O)CCN(CC(=O)O)CC3)CC2)C(C)C)CSCc2cccc(c2)CSC[C@@H](C(N)=O)NC(=O)[C@H](CO)NC(=O)[C@H](Cc2c[nH]c3ccccc23)NC(=O)[C@H]([C@@H](C)O)NC1=O [3BP-4356] ({DOTA}-[X2]VYCE[dP]D[Phe(4-NH2)](Suc)LTWSC-NH2; linker 4-13 via mXylylene)
3 | A (t1/2>15.0 minutes) | < 10 nM | – | < 10 nM | – | CC(C)C[C@@H]1NC(=O)[C@H](Cc2cccc(NC(=O)c3csc(S(N)(=O)=O)c3)c2)NC(=O)[C@H](CC(=O)O)NC(=O)[C@H]2CCCN2C(=O)[C@H](CCC(=O)O)NC(=O)[C@@H](NC(=O)[C@H](Cc2ccc(O)cc2)NC(=O)[C@@H](NC(=O)CN2CCC(NC(=O)CN3CCN(CC(=O)O)CCN(CC(=O)O)CCN(CC(=O)O)CC3)CC2)C(C)C)CSCc2cccc(c2)CSC[C@@H](C(N)=O)NC(=O)[C@H](CO)NC(=O)[C@H](Cc2c[nH]c3ccccc23)NC(=O)[C@H]([C@@H](C)O)NC1=O [3BP-4412] ({DOTA}-[X2]VYCE[dP]D[X10]LTWSC-NH2; linker 4-13 via mXylylene)
4 | D (t1/2≤2.0 minutes) | < 10 nM | – | – | < 10 nM | CC(C)C[C@@H]1NC(=O)[C@H](Cc2c[nH]c3ccccc23)NC(=O)[C@H](CC(=O)O)NC(=O)[C@H]2CCCN2C(=O)[C@H](CCC(=O)O)NC(=O)[C@@H](NC(=O)CN2CCC(NC(=O)CN3CCN(CC(=O)O)CCN(CC(=O)O)CCN(CC(=O)O)CC3)CC2)CSCc2cccc(c2)CSC[C@@H](C(N)=O)NC(=O)[C@H](CO)NC(=O)[C@H](Cc2c[nH]c3ccccc23)NC(=O)[C@H]([C@@H](C)O)NC1=O [3BP-3858] ({DOTA}-[X2]CE[dP]DWLTWSC-NH2; linker 2-11 via mXylylene)
5 | – | < 10 nM | – | – | < 10 nM | CC(=O)N[C@H](C(=O)N[C@@H](Cc1ccc(O)cc1)C(=O)N[C@H]1CSCc2cccc(c2)CSC[C@@H](C(N)=O)NC(=O)[C@H](C)NC(=O)[C@H](Cc2c[nH]c3ccccc23)NC(=O)[C@H]([C@@H](C)O)NC(=O)[C@H](CC(C)C)NC(=O)[C@H](Cc2c[nH]c3ccccc23)NC(=O)[C@H](CC(=O)O)NC(=O)[C@@H](C)N(C)C(=O)[C@H](CCC(=O)O)NC1=O)C(C)C [3BP-3281] (Ac-VYCE[dNMeA]DWLTWAC-NH2; linker 3-12 via mXylylene)
6 | A (t1/2>15.0 minutes) | < 10 nM | – | < 10 nM | – | CC(C)C[C@@H]1NC(=O)[C@H](Cc2cccc(NC(=O)CCCS(N)(=O)=O)c2)NC(=O)[C@H](CC(=O)O)NC(=O)[C@H]2CCCN2C(=O)[C@H](CCC(=O)O)NC(=O)[C@@H]2CSCc3cccc(c3)CSC[C@@H](C(N)=O)NC(=O)[C@H](CNC(=O)C[C@H](NC(=O)CN3CCN(CC(=O)O)CCN(CC(=O)O)CCN(CC(=O)O)CC3)C(=O)N2)NC(=O)[C@H](Cc2c[nH]c3ccccc23)NC(=O)[C@H]([C@@H](C)O)NC1=O [3BP-4488] ({DOTA}-DCE[dP]D[Phe(3-NHCO(CH2)3SO2NH2)]LTW[Dap]C-NH2; lactam 1-10; linker 2-11 via mXylylene)
7 | A (t1/2>15.0 minutes) | < 10 nM | – | – | < 10 nM | CC(=O)N[C@H](C(=O)N[C@@H](Cc1ccc(O)cc1)C(=O)N[C@H]1CSCc2cccc(c2)CSC[C@@H](C(N)=O)NC(=O)[C@H](CO)NC(=O)[C@H](Cc2c[nH]c3ccccc23)NC(=O)[C@H]([C@@H](C)O)NC(=O)[C@H](CC(C)C)NC(=O)[C@H](Cc2c[nH]c3ccccc23)NC(=O)[C@H](CC(=O)O)NC(=O)[C@H]2CCCN2C(=O)[C@H](CCC(=O)O)NC1=O)C(C)C [3BP-3565] (Ac-VYCE[dP]DWLTWSC-NH2; linker 3-12 via mXylylene)
8 | B (t1/2 between 5.1 and 15.0 minutes) | < 10 nM | < 10 nM | – | – | CC(C)C[C@@H]1NC(=O)[C@H](Cc2c[nH]c3ccccc23)NC(=O)[C@H](CC(=O)O)NC(=O)[C@H]2CCCN2C(=O)[C@H](CCC(=O)O)NC(=O)[C@@H](NC(=O)[C@H](CO)NC(=O)[C@@H](NC(=O)CN2CCC(NC(=O)CN3CCN(CC(=O)O)CCN(CC(=O)O)CCN(CC(=O)O)CC3)CC2)C(C)C)CSCc2cccc(c2)CSC[C@@H](C(N)=O)NC(=O)[C@H](CO)NC(=O)[C@H](Cc2c[nH]c3ccccc23)NC(=O)[C@H]([C@@H](C)O)NC1=O [3BP-4105] ({DOTA}-[X2]VSCE[dP]DWLTWSC-NH2; linker 4-13 via mXylylene)
9 | B (t1/2 between 5.1 and 15.0 minutes) | < 10 nM | – | 10 to 79.4 nM | – | CC(=O)N[C@H](CC(=O)O)C(=O)Nc1cccc(C[C@H]2NC(=O)[C@H](CC(=O)O)NC(=O)[C@H]3CCCN3C(=O)[C@H](CCC(=O)O)NC(=O)[C@@H](NC(=O)[C@H](Cc3ccc(O)cc3)NC(=O)[C@@H](NC(=O)CN3CCC(NC(=O)CN4CCN(CC(=O)O)CCN(CC(=O)O)CCN(CC(=O)O)CC4)CC3)C(C)C)CSCc3cccc(c3)CSC[C@@H](C(N)=O)NC(=O)[C@H](CO)NC(=O)[C@H](Cc3c[nH]c4ccccc34)NC(=O)[C@H]([C@@H](C)O)NC(=O)[C@H](CC(C)C)NC2=O)c1 [3BP-4364] ({DOTA}-[X2]VYCE[dP]D[X32]LTWSC-NH2; linker 4-13 via mXylylene)
10 | C (t1/2 between 2.1 and 5.0 minutes) | < 10 nM | – | 10 to 79.4 nM | – | CC(C)C[C@@H]1NC(=O)[C@H](Cc2cccc(NC(=O)CN3C(=O)NC4NC(=O)NC43)c2)NC(=O)[C@H](CC(=O)O)NC(=O)[C@H]2CCCN2C(=O)[C@H](CCC(=O)O)NC(=O)[C@@H](NC(=O)[C@H](Cc2ccc(O)cc2)NC(=O)[C@@H](NC(=O)CN2CCC(NC(=O)CN3CCN(CC(=O)O)CCN(CC(=O)O)CCN(CC(=O)O)CC3)CC2)C(C)C)CSCc2cccc(c2)CSC[C@@H](C(N)=O)NC(=O)[C@H](CO)NC(=O)[C@H](Cc2c[nH]c3ccccc23)NC(=O)[C@H]([C@@H](C)O)NC1=O (some centres unmarked) [3BP-4341] ({DOTA}-[X2]VYCE[dP]D[X7](X13)LTWSC-NH2; linker 4-13 via mXylylene)

Row | Compound | t1/2 category (activity) [1] | Kd [1] | IC50 [2, 3] | IC50 [2, 4] | IC50 [2, 5]
11 | CC(C)C[C@@H]1NC(=O)[C@H](Cc2cccc(NC(=O)c3ccc(S(N)(=O)=O)cc3)c2)NC(=O)[C@H](CC(=O)O)NC(=O)[C@H]2CCCN2C(=O)[C@H](CCC(=O)O)NC(=O)[C@@H](NC(=O)[C@H](Cc2ccc(O)cc2)NC(=O)[C@@H](NC(=O)CN2CCC(NC(=O)CN3CCN(CC(=O)O)CCN(CC(=O)O)CCN(CC(=O)O)CC3)CC2)C(C)C)CSCc2cccc(c2)CSC[C@@H](C(N)=O)NC(=O)[C@H](CO)NC(=O)[C@H](Cc2c[nH]c3ccccc23)NC(=O)[C@H]([C@@H](C)O)NC1=O [3BP-4405] ({DOTA}-[X2]VYCE[dP]D[X24]LTWSC-NH2; linker 4-13 via mXylylene) | A (t1/2>15.0 minutes) | < 10 nM | – | < 10 nM | –
